# According to PubChem BioAssay AID1963444 (Molecular Pharmacology Branch, DTP, NCI, 2024):
# System: HSSY-II complex spheroid growth, percent test/control
# Experiment: Anticancer human tumor HSSY-II cell line growth inhibition [Asc];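 also: spheroids exposed to drug for 7 days before reading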
# Conditions: for IC50: curve of first compound; for viability, T/C: stronger effect = lower value
# Procedure: Multicellular complex tumor spheroid response to apoptosis pathway targeting inhibitors Alrizomadlin, Pelcitoclax, and Dasminapant in combination with a variety of drugs and investigational agents in selected tumor cell lines
# The MDM2 inhibitor alrizomadlin, the Bcl-2/Bcl-xL inhibitor pelcitoclax, and the IAPs inhibitor dasminapant were evaluated both individually and in combination with standard of care and investigational anticancer small molecules within a complex spheroid model of solid tumors. . Complex spheroids include a stromal component modeled by human endothelial cells (HUVEC) and fibroblasts modeled by human mesenchymal stem cells (MSCs). The concentration ranges selected for each drug and investigational agent were based upon clinically achievable concentrations if the clinical Cmax of the agent was known.
# Compounds. The drugs and investigational agents: alrizomadlin (APG-115; NSC831270), pelcitoclax (APG-1252; NSC835773), dasminapant (APG-1387;NSC834197), TAK-243 (NSC785004), copanlisib (NSC809693), olaparib (NSC753686), talazoparib (NSC767125), cobimetinib (NSC 768068), eltanexor (KPT-8602, NSC 794443), abemaciclib (NSC 768073), sotorasib (NSC818433), adagrasib (NSC 831453), MRTX-1133 (NSC 836407), Iadademestat (ORY1001, NSC 806812), and RMC-4630 (NSC839698), were obtained from the NCI Developmental Therapeutics Program Chemical Repository. The FDA-approved anticancer drug set is available from the Developmental Therapeutics Program at https://dtp.cancer.gov/organization/dscb/obtaining/available plates.htm. […] The stock solutions were prepared in dimethyl sulfoxide (DMSO, Sigma-Aldrich, St. Louis, MO, cat. D2650) at 800-fold the tested concentration and stored at -70 degrees C prior to their use. All drugs and investigational agents were tested over a range starting from a high concentration at or near the clinical Cmax and decreasing in half-log increments. If the clinical Cmax for an agent had not been determined, the highest concentration tested was 10 microM.
# The patient-derived cancer (PDC) cell lines include five colon adenocarcinomas: 186277-243-T-J2-PDC, 616215-338-R-J1-PDC, 439559-082-T-J2-PDC, 463943-066-T-J2-PDC, and 519858-162-T-J1-PDC; three pancreatic carcinomas: 323965-272-R-J2-PDC, 521955-158-R6-J3-PDC, and 521955-158-R2-J5-PDC; two uterine sarcomas: 327498-152-R-J2-PDC and 993429-296-R-J1-PDC; two rhabdomyosarcomas: 755483-174-R-J1-PDC and 772245-204-R-J1-PDC; two soft tissue sarcomas: 126254-015-R-J1-PDC and 494315-158-R-J1-PDC; two malignant fibrous histiocytomas: 317291-083-R-J1-PDC and 596521-263-R-J1-PDC; two breast carcinomas: 171881-019-R-J1-PDC and 885512-296-R-J2-PDC; and one ovarian carcinoma: 6556581-035-R-J-PDC were obtained from the NCI PDMR, (https://pdmr.cancer.gov). The established cell lines HSSY-2 synovial sarcoma (RRID:CVCL 8719), SYO-1 synovial sarcoma (RRID:CVCL_7146), MPNST malignant peripheral neural sheath tumor were obtained from the Sloan Kettering Institute. The following established cell lines were purchased from the American Type Culture Collection (ATCC, Manassas, VA), Sor the received from the NCI repository:, PANC-1 pancreatic carcinoma (CRL-1469, RRID:CVCL_0480), OVCAR-5 ovarian carcinoma (RRID:CVCL_1628), OVCAR-8 ovarian carcinoma (RRID:CVCL_1629), , MCF-7 breast carcinoma (CRL-12584, RRID:CVCL_0031), MDA-MB-231 breast carcinoma (CRL-12532, RRID:CVCL_0062), NCI-H1876 small cell lung carcinoma (CRL-5902, RRID:CVCL_1503), NCI-H510A small cell lung carcinoma (HTB-184, RRID:CVCL_1565), NCI-H1417 (CRL-5869, RRID:CVCL_1469), and NCI-H196 small cell lung carcinoma (CRL-5823, RRID:CVCL_1509). Dr. Peter Houghton (Greehey Children's Cancer Research Institute, University of Texas Health Science Center, San Antonio, TX) provided Rh-18 rhabdomyosarcoma (RRID:CVCL_1659). Pooled donor human umbilical vein endothelial cells (HUVEC, Lonza, cat. CC-2519) and human mesenchymal stem cells (hMSC, Lonza, cat. PT-2501) were purchased from Lonza (Walkersville, MD).
# Cell Culture. […]
compound,measurement,setting,value
NC(=O)C(=Cn1cnc(-c2cc(C(F)(F)F)cc(C(F)(F)F)c2)n1)c1cncnc1 + CNC(C)C(=O)NC1CN(S(=O)(=O)c2cccc(S(=O)(=O)N3CCC4CCC(C(=O)NC(c5ccccc5)c5ccccc5)N4C(=O)C(NC(=O)C(C)NC)C3)c2)CCC2CCC(C(=O)NC(c3ccccc3)c3ccccc3)N2C1=O,IC50,second compound 0.01 µM,0.0106 µM
same,IC50,second compound 0.0316 µM,0.0143 µM
same,IC50,second compound 0.1 µM,0.0129 µM
same,IC50,second compound 0.316 µM,0.0111 µM
same,IC50,second compound 1 µM,0.0127 µM
same,"viability, T/C","second compound 0.01 µM, first compound 0.000949 µM",93.6%
same,"viability, T/C","second compound 0.01 µM, first compound 0.003 µM",78.1%
same,"viability, T/C","second compound 0.01 µM, first compound 0.00949 µM",53.5%
same,"viability, T/C","second compound 0.01 µM, first compound 0.03 µM",23.7%
same,"viability, T/C","second compound 0.01 µM, first compound 0.0949 µM",11.5%
same,"viability, T/C","second compound 0.01 µM, first compound 0.3 µM",0.44%
same,"viability, T/C","second compound 0.0316 µM, first compound 0.000949 µM",77.6%
same,"viability, T/C","second compound 0.0316 µM, first compound 0.003 µM",79.4%
same,"viability, T/C","second compound 0.0316 µM, first compound 0.00949 µM",57.8%
same,"viability, T/C","second compound 0.0316 µM, first compound 0.03 µM",32.5%
same,"viability, T/C","second compound 0.0316 µM, first compound 0.0949 µM",9.75%
same,"viability, T/C","second compound 0.0316 µM, first compound 0.3 µM",0.64%
same,"viability, T/C","second compound 0.1 µM, first compound 0.000949 µM",76.4%
same,"viability, T/C","second compound 0.1 µM, first compound 0.003 µM",68.2%
same,"viability, T/C","second compound 0.1 µM, first compound 0.00949 µM",58.9%
same,"viability, T/C","second compound 0.1 µM, first compound 0.03 µM",28.8%
same,"viability, T/C","second compound 0.1 µM, first compound 0.0949 µM",7.63%
same,"viability, T/C","second compound 0.1 µM, first compound 0.3 µM",0.48%
same,"viability, T/C","second compound 0.316 µM, first compound 0.000949 µM",91.1%
same,"viability, T/C","second compound 0.316 µM, first compound 0.003 µM",73.5%
same,"viability, T/C","second compound 0.316 µM, first compound 0.00949 µM",55.1%
same,"viability, T/C","second compound 0.316 µM, first compound 0.03 µM",29.3%
same,"viability, T/C","second compound 0.316 µM, first compound 0.0949 µM",6.77%
same,"viability, T/C","second compound 0.316 µM, first compound 0.3 µM",0.44%
same,"viability, T/C","second compound 1 µM, first compound 0.000949 µM",88.1%
same,"viability, T/C","second compound 1 µM, first compound 0.003 µM",79.8%
same,"viability, T/C","second compound 1 µM, first compound 0.00949 µM",56.3%
same,"viability, T/C","second compound 1 µM, first compound 0.03 µM",29.9%
same,"viability, T/C","second compound 1 µM, first compound 0.0949 µM",5.98%
same,"viability, T/C","second compound 1 µM, first compound 0.3 µM",0.56%
